Literature values as cited in paper PMC11010885, “Functional Analysis and Tissue-Specific Expression of Calcitonin and CGRP with RAMP-Modulated Receptors CTR and CLR in Chickens” (Animals : an Open Access Journal from MDPI, 2024).

Test system: RAMP1- and RAMP3-derived amylin receptors
Settings: ref [51],[53]; cited from earlier work
Description: In mammals, CTR functions as a receptor for three distinct hormones: CT, CGRP, and amylin (not explored in this study). The specific affinity spectrum is determined by its co-expression with RAMPs. Although CTR alone is a receptor for CT that is involved in bone homeostasis, CTRs in complex with RAMP1–3 are high-affinity receptors for amylin, a peptide involved in the regulation of food intake. […] The CTR + RAMP1 complex is a ...

**Q.** With “rat amylin: rat amylin, cited from the literature” as the substance, how does the affinity read?
**A.** The affinity was “moderate affinity”.
